Experiments:
[1] = tested on: Echinochloa oryzoides (Ard.) Fritsch.; experiment: Preemergence weed control under flooded paddy conditions, ECHORC (Watergrass (Calif.)); assay type: in vivo; settings: preemergence, flooded paddy, rated three to four weeks after treatment; also: meaning of each grade not given here
[2] = tested on: Cyperus serotinus, Rottb.; experiment: Preemergence weed control under flooded paddy conditions, CYPSE (Flatsedge); assay type: in vivo; settings: preemergence, rated three to four weeks after treatment; also: meaning of each grade not given here
[3] = tested on: Monochoria vaginalis, Presl.; experiment: Preemergence weed control under flooded paddy conditions, MOOVA (Monochoria); assay type: in vivo; settings: preemergence, flooded paddy, rated three to four weeks after treatment; also: meaning of each grade not given here
Cyperus iria = experiment: Preemergence weed control under flooded paddy conditions, CYPIR (Rice Flatsedge); assay type: in vivo; settings: preemergence, flooded paddy, rated three to four weeks after treatment; also: meaning of each grade not given here
[4] = tested on: Oryza sativa, (L.) Tebonnet; experiment: Rice tolerance to post-transplant applications under flooded paddy conditions (Example 187), ORYSAT (Rice, Tebonnet); settings: rated three to four weeks after treatment
Sagittaria pygmaea, L. = experiment: Preemergence weed control under flooded paddy conditions, SAGPY (Arrowhead (Pygmaea)); assay type: in vivo; settings: preemergence, flooded paddy, rated three to four weeks after treatment; also: meaning of each grade not given here

| SMILES | herbicidal effect rating, ECHORC ([1]; 0.0313 kg/ha) | herbicidal effect rating, ECHORC ([1]; 0.0625 kg/ha) | herbicidal effect rating, ECHORC ([1]; 0.1250 kg/ha) | herbicidal effect rating, ECHORC ([1]; 0.2500 kg/ha) | herbicidal effect rating, CYPSE ([2]; 0.0313 kg/ha) | herbicidal effect rating, CYPSE ([2]; 0.0625 kg/ha) | herbicidal effect rating, CYPSE ([2]; 0.1250 kg/ha) | herbicidal effect rating, CYPSE ([2]; 0.2500 kg/ha) | herbicidal effect rating, MOOVA ([3]; 0.0313 kg/ha) | herbicidal effect rating, MOOVA ([3]; 0.0625 kg/ha) | herbicidal effect rating, MOOVA ([3]; 0.1250 kg/ha) | herbicidal effect rating, MOOVA ([3]; 0.2500 kg/ha) | herbicidal effect rating, CYPIR (Cyperus iria; 0.0313 kg/ha) | herbicidal effect rating, CYPIR (Cyperus iria; 0.0625 kg/ha) | herbicidal effect rating, CYPIR (Cyperus iria; 0.1250 kg/ha) | herbicidal effect rating, CYPIR (Cyperus iria; 0.2500 kg/ha) | herbicidal effect rating, ORYSAT (rice tolerance) ([4]; 0.0313 kg/ha) | herbicidal effect rating, ORYSAT (rice tolerance) ([4]; 0.0625 kg/ha) | herbicidal effect rating, ORYSAT (rice tolerance) ([4]; 0.1250 kg/ha) | herbicidal effect rating, ORYSAT (rice tolerance) ([4]; 0.2500 kg/ha) | also measured |
| --- | --- | --- | --- | --- | --- | --- | --- | --- | --- | --- | --- | --- | --- | --- | --- | --- | --- | --- | --- | --- | --- |
| CSCc1nsc2ccc(-n3c(=O)cc(C(F)(F)F)n(C)c3=O)cc12 [Example 21, 1-Methyl-3-{3-{(methylthio)methyl]-1,2-benzisothiazol-5-yl}-6-(trifluoromethyl)-2,4(1H,3H)-pyrimidinedione] | 0.0 | 0.7 | 2.7 | 4.7 | 0.0 | 0.0 | 0.0 | 0.0 | 4.0 | 6.0 | 7.5 | 9.0 | 0.0 | 0.0 | 0.5 | 1.0 | 1.7 | 2.0 | 2.3 | 4.3 | herbicidal effect rating, SAGPY (Sagittaria pygmaea, L.; 0.0313 kg/ha): 0.0; herbicidal effect rating, SAGPY (Sagittaria pygmaea, L.; 0.0625 kg/ha): 0.0; herbicidal effect rating, SAGPY (Sagittaria pygmaea, L.; 0.1250 kg/ha): 0.0; herbicidal effect rating, SAGPY (Sagittaria pygmaea, L.; 0.2500 kg/ha): 0.0 |
| COC(=O)COc1noc2ccc(-n3c(=O)cc(C(F)(F)F)n(C)c3=O)cc12 [Example 22, Methyl {{5-[3,6-dihydro-3-methyl-2,6-dioxo-4-(trifluoromethyl)-1(2H)-pyrimidinyl]-1,2-benzisoxazol-3-yl}oxy}acetate] | 9.0 | 9.0 | 9.0 | 9.0 | 2.0 | 7.0 | 7.0 | 9.0 | 9.0 | 9.0 | 9.0 | 9.0 | 9.0 | 9.0 | 9.0 | 9.0 | 2.0 | 2.0 | 2.5 | 2.5 | herbicidal effect rating, SAGPY (Sagittaria pygmaea, L.; 0.0313 kg/ha): 0.0; herbicidal effect rating, SAGPY (Sagittaria pygmaea, L.; 0.0625 kg/ha): 2.0; herbicidal effect rating, SAGPY (Sagittaria pygmaea, L.; 0.1250 kg/ha): 4.0; herbicidal effect rating, SAGPY (Sagittaria pygmaea, L.; 0.2500 kg/ha): 9.0 |
| Cc1noc2cc(F)c(-n3c(=O)cc(C(F)(F)F)n(C)c3=O)cc12 [Example 23, 3-(6-Fluoro-3-methyl-1,2-benzisoxazol-5-yl)-1-methyl-6-(trifluoromethyl)-2,4(1H,3H)-pyrimidinedione] | 4.5 | 7.0 | 8.5 | 9.0 | 4.0 | 7.0 | 8.0 | 9.0 | 9.0 | 9.0 | 9.0 | 9.0 | 7.0 | 9.0 | 9.0 | 9.0 | 5.5 | 6.5 | 8.0 | 8.5 | herbicidal effect rating, SAGPY (Sagittaria pygmaea, L.; 0.0313 kg/ha): 4.0; herbicidal effect rating, SAGPY (Sagittaria pygmaea, L.; 0.0625 kg/ha): 6.0; herbicidal effect rating, SAGPY (Sagittaria pygmaea, L.; 0.1250 kg/ha): 9.0; herbicidal effect rating, SAGPY (Sagittaria pygmaea, L.; 0.2500 kg/ha): 9.0 |
| COc1ccc(C)cc1-c1nsc2ccc(-n3c(=O)cc(C)n(C)c3=O)cc12 [Example 24, 3-[3-(6-Methoxy-m-tolyl)-1,2-benzisothiazol-5-yl]-1,6-dimethyl-2,4(1H,3H)-pyrimidinedione] | 0.0 | 0.0 | 2.0 | 7.0 | 0.0 | 0.0 | 1.0 | 4.0 | 4.0 | 8.0 | 9.0 | 9.0 | 0.0 | 2.0 | 6.0 | 8.0 | 2.0 | 2.0 | 3.0 | 4.0 | herbicidal effect rating, SAGPY (Sagittaria pygmaea, L.; 0.0313 kg/ha): 0.0; herbicidal effect rating, SAGPY (Sagittaria pygmaea, L.; 0.0625 kg/ha): 0.0; herbicidal effect rating, SAGPY (Sagittaria pygmaea, L.; 0.1250 kg/ha): 0.0; herbicidal effect rating, SAGPY (Sagittaria pygmaea, L.; 0.2500 kg/ha): 0.0 |

Source: patent publication EP0908457B1, “3-(1,2-benzisothiazol- and isoxazol-5-Y1)-2,4(1H,3H)-pyrimidinedione or thione and 3-(1,2-benzisothiazol- and isoxazol-5-y1)-4(3H)-pyrimidinone or thione herbicidal agents” (BASF AKTIENGESELLSCHAFT, priority 1997, dated 1999)
